Test results from PubChem BioAssay (NCI).
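Exposure lasted 48 hours, with cells grown in 96-well plates and compounds tested at five concentrations. GI50: concentration for 50% inhibition of growth. Definition used: TGI = concentration required for complete inhibition of growth.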

Legend:
Experiment in all cases: NCI anticancer screen, dose series, 48 h
HT29 colon = system: HT29 colon
SW-620 colon = system: SW-620 colon
T-47D breast = system: T-47D breast
HOP-62 NSCLC = system: HOP-62 NSCLC
UO-31 renal = system: UO-31 renal
NCI-H522 lung = system: NCI-H522 lung
COLO 205 colon = system: COLO 205 colon
EKVX NSCLC = system: EKVX NSCLC
SF-268 CNS = system: SF-268 CNS
HCT-116 colon = system: HCT-116 colon

Structure (SMILES) | TGI (HT29 colon) | TGI (SW-620 colon) | TGI (T-47D breast) | TGI (HOP-62 NSCLC) | TGI (UO-31 renal) | TGI (NCI-H522 lung) | TGI (COLO 205 colon) | TGI (EKVX NSCLC) | TGI (SF-268 CNS) | TGI (HCT-116 colon) | GI50 (HT29 colon) | GI50 (SW-620 colon) | GI50 (T-47D breast) | GI50 (HOP-62 NSCLC) | GI50 (UO-31 renal) | GI50 (NCI-H522 lung) | GI50 (COLO 205 colon) | GI50 (EKVX NSCLC) | GI50 (SF-268 CNS) | GI50 (HCT-116 colon)
Cc1ccc(S(=O)(=O)NNC(=O)c2cc(C)ccc2NC(=O)C23CC4CC(CC(C4)C2)C3)cc1 | > 100 µM | > 100 µM | > 100 µM | > 100 µM | 44.9 µM | 76.3 µM | > 100 µM | > 100 µM | > 100 µM | > 100 µM |  |  |  |  |  |  |  |  |  | 
COc1cccc(CC(C)NCC(O)c2ccc(O)c(O)c2)c1 (stereo not drawn) | > 100 µM | > 100 µM | > 100 µM | > 100 µM | > 100 µM | > 100 µM | > 100 µM | > 100 µM | > 100 µM | > 100 µM |  |  |  |  |  |  |  |  |  | 
N#CC(C#N)=C1C(C#N)=C(N)NC12OCCO2 | > 100 µM | > 100 µM | > 100 µM | > 100 µM | > 100 µM | > 100 µM | > 100 µM | > 100 µM | > 100 µM | > 100 µM |  |  |  |  |  |  |  |  |  | 
CCOC(=O)c1c(N2CCCC2)ncn(-c2ccccc2)c1=S | > 100 µM | > 100 µM | > 100 µM | > 100 µM | > 100 µM | > 100 µM | > 100 µM | > 100 µM | > 100 µM | > 100 µM |  |  |  |  |  |  |  |  |  | 
Cc1cc(/C=C\c2ccc3ccccc3[n+]2C)c(O)c2ncccc12 | 21.7 µM | 2.15 µM | 5.68 µM | 8.03 µM | 3.27 µM | 5.02 µM | 4.58 µM | 7.82 µM | 8.63 µM | 1.41 µM | 0.218 µM | 0.196 µM | 0.835 µM | 0.497 µM | 0.405 µM | 1.05 µM | 0.448 µM | 0.671 µM | 0.486 µM | 0.116 µM
O=C(NCc1cccc(C(F)(F)F)c1)c1cc2sccc2nc1C(F)(F)F | > 100 µM | > 100 µM | > 100 µM | > 100 µM | > 100 µM | > 100 µM | > 100 µM | > 100 µM | > 100 µM | > 100 µM |  |  |  |  |  |  |  |  |  | 
O=C(CCN1CCCC1)Nc1ccc2sc3ccccc3c(=O)c2n1 | 6.37 µM | 19.9 µM | > 31.6 µM | 19.6 µM | 16.3 µM | 15.2 µM | 16.3 µM | 20.1 µM | > 31.6 µM | 16.4 µM |  |  |  |  |  |  |  |  |  | 
Cc1ccncc1.F[B-](F)(F)F.[Pt+2].c1ccc(-c2cccc(-c3ccccn3)n2)nc1 | 27.9 µM | 42.6 µM | 42.9 µM | > 55.2 µM | > 27.8 µM | 36.3 µM | 20.8 µM | > 73.5 µM | > 60 µM | > 100 µM |  |  |  |  |  |  |  |  |  | 
COc1nc2c(c(=O)n1C)N[C@H]1[C@H](OC(C)=O)[C@@H](OC(C)=O)CO[C@H]1N2 | > 100 µM | > 100 µM | > 100 µM | > 100 µM | > 100 µM | > 100 µM | > 100 µM | > 100 µM | > 100 µM | > 100 µM |  |  |  |  |  |  |  |  |  | 
COC(=O)[C@H]1[C@@H](C(C)C)O[C@@H](C(C)C)O[C@H]1C(F)(F)F | > 100 µM | > 100 µM | > 100 µM | > 100 µM | > 100 µM | > 100 µM | > 100 µM | > 100 µM | > 100 µM | > 100 µM |  |  |  |  |  |  |  |  |  | 
Cc1cccc2c1[nH]c1[nH]c(=O)[nH]c(=O)c12 | > 100 µM | > 100 µM | > 100 µM | > 100 µM | > 100 µM | > 100 µM | > 100 µM | > 100 µM | > 100 µM | > 100 µM |  |  |  |  |  |  |  |  |  | 
CCOC(=O)C1(C(=O)OCC)[C@H](c2ccccc2)C2=NO[C@@H]3CCC[C@H]1[C@H]23 | > 100 µM | > 100 µM | > 100 µM | > 100 µM | > 100 µM | > 100 µM | > 100 µM | > 100 µM | > 100 µM | > 100 µM |  |  |  |  |  |  |  |  |  | 
C(=C\c1cccc(/C=C/c2ccccn2)n1)/c1ccccn1 | > 100 µM | > 100 µM | > 100 µM | > 100 µM | > 100 µM | 28.8 µM | > 100 µM | > 100 µM | 37.2 µM | > 100 µM |  |  |  |  |  |  |  |  |  | 
CC(=O)OCC1OC(n2c3c(c(-c4cccc5ccccc45)c(C#N)c2=S)CCCC3)C(OC(C)=O)C(OC(C)=O)C1OC(C)=O (stereo not drawn) | > 100 µM | > 100 µM | > 100 µM | > 100 µM | 62.2 µM | > 100 µM | > 100 µM | > 100 µM | > 100 µM | > 100 µM |  |  |  |  |  |  |  |  |  | 
COc1ccc2c(c1)C(N)=C(c1ccccc1)C2=O | > 100 µM | > 100 µM | > 100 µM | > 100 µM |  | > 100 µM | > 100 µM | > 100 µM | > 100 µM | > 100 µM |  |  |  |  |  |  |  |  |  | 
Cc1ccc(C(=O)N/N=C(\N=Nc2cccc(Cl)c2)c2ccc(N(CCC#N)CCC#N)cc2C)cc1 | > 100 µM | > 100 µM | > 100 µM | > 100 µM | > 100 µM | > 100 µM | > 100 µM | > 100 µM |  | > 100 µM |  |  |  |  |  |  |  |  |  | 
